# Experimental data reported in ChEMBL document CHEMBL4138057, “Structure-guided optimization of quinoline inhibitors of Plasmodium N-myristoyltransferase” (Medchemcomm, 2017).
# Target: T1, Glycylpeptide N-tetradecanoyltransferase (Plasmodium falciparum (isolate 3D7), UniProt Q8ILW6)
# T1 sequence (Q8ILW6 whole entry): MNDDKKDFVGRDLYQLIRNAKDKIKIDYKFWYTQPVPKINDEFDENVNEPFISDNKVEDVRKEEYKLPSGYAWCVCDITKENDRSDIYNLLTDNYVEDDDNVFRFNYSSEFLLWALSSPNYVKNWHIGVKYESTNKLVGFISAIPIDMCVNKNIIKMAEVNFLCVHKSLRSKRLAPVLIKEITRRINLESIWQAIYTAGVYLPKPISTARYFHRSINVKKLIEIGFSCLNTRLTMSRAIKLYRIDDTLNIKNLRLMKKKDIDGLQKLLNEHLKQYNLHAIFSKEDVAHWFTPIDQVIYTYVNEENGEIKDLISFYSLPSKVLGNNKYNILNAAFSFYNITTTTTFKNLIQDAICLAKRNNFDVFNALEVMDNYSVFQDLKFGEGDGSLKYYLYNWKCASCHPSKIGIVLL
# Assay: Inhibition of Plasmodium falciparum NMT preincubated for 10 to 20 mins followed by Hs pp60src (2 to 16 residues) substrate addition measured after 60 mins by CPM-based fluorescence assay
# Conditions: read-out: Ki(app)
row,Ki [µM],Compound
1,> 10,CCOC(=O)c1cnc2ccc(OCc3ccccc3)cc2c1S(=O)(=O)CC
2,> 10,CCOC(=O)c1cnc2ccc(OCc3ccccc3)cc2c1SCCC#N
3,> 10,CCSc1c(CO)cnc2ccc(OCc3ccccc3)cc12
